Assay results reported in patent publication US20020058694A1, “Ureido and thioureido derivatives of 4-amino-2(5H)-furanones and 4-amino-2(5H)-thiophenones as antitumor agents” (Roche Diagnostics GmbH, priority 1997, published 2002).
≈ marks a conversion by molar mass, not a printed value.

Experiments:
Assay type in all cases: cell-based
Conditions in all cases: 144 hours of incubation, concentration which causes the death of 50% of cell population
[1] = tested on: LoVo; assay: MTT cytotoxicity assay, LoVo human colon tumor cell line
Description: (§1) The compounds of the invention were tested against three human colon tumor cell lines (HT 29, HCT 116 and LoVo). After 144 hours of incubation of the cells with the compound to be tested, the cytotoxicity is evaluated using the MTT assay (Mosman, T. “Rapid Colorimetric Assay for Cellular Growth and Survival: Application to Proliferation and Cytotoxicity Assay”; J. Immunol. Methods, (1983), 65, 66; Green, L. M., “Rapid Colorimetric Assay for Cell Viability; Application to the Quantitation of Cytotoxic and Growth Inhibitory Lymphokines”, J. Immunol. Methods, (1984), 70, 257-268). The results are expressed as IC50 ([…]), that it the concentration of the tested compound which causes the death of 50% of cell population.

[2] = tested on: HT 29; assay: MTT cytotoxicity assay, HT 29 human colon tumor cell line
Description: as §1

[3] = tested on: HCT 116; assay: MTT cytotoxicity assay, HCT 116 human colon tumor cell line
Description: as §1

Row | Structure (SMILES) | IC50 [1] | IC50 [2] | IC50 [3]
1 | O=C(NC1=CC(=O)OC1)Nc1ccc(Cl)cc1 [Example 2, 4-[N-(4-chlorophenyl)aminocarbonylamino]-2(5H)-furanone] | 0.01 µg/mL (≈ 0.0396 µM) | 0.032 µg/mL (≈ 0.127 µM) | 0.034 µg/mL (≈ 0.135 µM)
2 | CCc1ccc(NC(=O)NC2=CC(=O)OC2)cc1Cl [Example 3, 4-[N-(4-ethyl-3-chlorophenyl)aminocarbonylamino)-2(5H)-furanone] | 0.034 µg/mL (≈ 0.121 µM) | 0.003 µg/mL (≈ 0.0107 µM) | < 0.01 µg/mL
